Reference: PubChem BioAssay AID248 (DTP/NCI, 2004)
Inconclusive results and toxic doses are left out. Rule as the data show it: active = T/C of 150% or more; inactive = T/C below 125%.

System: L1210 leukemia ip in BDF1 mice, survival T/C
Assay: NCI In Vivo Anticancer Drug Screen. Data for tumor model L1210 Leukemia (intraperitoneal) in B6D2F1 (BDF1) mice
Conditions: endpoint: mean survival time, higher = longer survival
Method in brief: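 Tumor cells were implanted, animals were treated, and survival was followed. The result divides the treated measurement by the vehicle-control measurement.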

[1] = dose: 100.0 mg/kg/injection, schedule: Q01DX009 (ip), vehicle: Klucel (hydroxypropylcellulose) (HPC)
[2] = dose: 200.0 mg/kg/injection, schedule: Q01DX009 (ip), vehicle: Klucel (hydroxypropylcellulose) (HPC)
[3] = dose: 400.0 mg/kg/injection, schedule: Q01DX009 (ip), vehicle: Klucel (hydroxypropylcellulose) (HPC)
[4] = dose: 100.0 mg/kg/injection, schedule: Q01DX001 (ip), vehicle: carboxymethylcellulose (CMC)
[5] = dose: 200.0 mg/kg/injection, schedule: Q01DX001 (ip), vehicle: carboxymethylcellulose (CMC)
[6] = dose: 400.0 mg/kg/injection, schedule: Q01DX001 (ip), vehicle: carboxymethylcellulose (CMC)
[7] = dose: 100.0 mg/kg/injection, schedule: Q01DX001 (ip), vehicle: saline
[8] = dose: 200.0 mg/kg/injection, schedule: Q01DX001 (ip), vehicle: saline
[9] = dose: 400.0 mg/kg/injection, schedule: Q01DX001 (ip), vehicle: saline
[10] = dose: 75.0 mg/kg/injection, schedule: Q01DX001 (ip), vehicle: saline
[11] = dose: 100.0 mg/kg/injection, schedule: Q04DX002 (ip), vehicle: saline

Measured: T/C

O=C(Nc1cc([N+](=O)[O-])ccc1O)c1ccc(Cl)c(Cl)c1
inactive: [1] 104 % of control | [2] 95 % of control | [3] 93 % of control

CCN(CC)c1cc(C)c2cc(Cc3ccccc3)ccc2n1
inactive: [4] 98 % of control | [5] 96 % of control | [6] 101 % of control

CCOC(=O)c1ccc(NC(=O)Nc2ccccc2C(=O)OC)cc1
inactive: [1] 110 % of control | [2] 100 % of control | [3] 94 % of control

Cc1cc(CCNC=O)c(C)c2c1sc1ccccc12
inactive: dose: 50.0 mg/kg/injection, schedule: Q01DX001 (ip), vehicle: saline 97 % of control | [7] 97 % of control | [8] 92 % of control | [9] 94 % of control

ClCc1ccc(-c2ccc(CCl)cc2)cc1
inactive: dose: 30.0 mg/kg/injection, schedule: Q01DX015 (ip), vehicle: carboxymethylcellulose (CMC) 116 % of control | dose: 60.0 mg/kg/injection, schedule: Q01DX015 (ip), vehicle: carboxymethylcellulose (CMC) 106 % of control | [4] 100 % of control | dose: 120.0 mg/kg/injection, schedule: Q01DX015 (ip), vehicle: carboxymethylcellulose (CMC) 102 % of control | [5] 104 % of control | dose: 240.0 mg/kg/injection, schedule: Q01DX015 (ip), vehicle: carboxymethylcellulose (CMC) 98 % of control | dose: 300.0 mg/kg/injection, schedule: Q01DX015 (ip), vehicle: carboxymethylcellulose (CMC) 108 % of control | [6] 105 % of control

CCCCCCCCCCCCCCCCCCNc1ccc(C(=O)OCC)cc1
inactive: dose: 37.5 mg/kg/injection, schedule: Q01DX009 (ip), vehicle: saline 94 % of control | [10] 86 % of control | dose: 75.0 mg/kg/injection, schedule: Q01DX009 (ip), vehicle: saline 95 % of control | dose: 75.0 mg/kg/injection, schedule: Q04DX003 (ip), vehicle: saline 87 % of control | dose: 150.0 mg/kg/injection, schedule: Q01DX009 (ip), vehicle: saline 96 % of control | dose: 150.0 mg/kg/injection, schedule: Q04DX003 (ip), vehicle: saline 87 % of control | dose: 300.0 mg/kg/injection, schedule: Q01DX001 (ip), vehicle: saline 88 % of control | dose: 300.0 mg/kg/injection, schedule: Q04DX003 (ip), vehicle: saline 92 % of control

CC(N)C(=O)O (stereo unspecified)
inactive: dose: 25.0 mg/kg/injection, schedule: Q04DX002 (ip), vehicle: saline 101 % of control | dose: 50.0 mg/kg/injection, schedule: Q04DX002 (ip), vehicle: saline 101 % of control | [7] 92 % of control | dose: 100.0 mg/kg/injection, schedule: Q01DX009 (ip), vehicle: saline 104 % of control | [11] 104 % of control | dose: 100.0 mg/kg/injection, schedule: Q04DX003 (ip), vehicle: saline 97 % of control | [8] 96 % of control | dose: 200.0 mg/kg/injection, schedule: Q01DX009 (ip), vehicle: saline 91 % of control | dose: 200.0 mg/kg/injection, schedule: Q04DX003 (ip), vehicle: saline 100 % of control | [9] 105 % of control | dose: 400.0 mg/kg/injection, schedule: Q01DX009 (ip), vehicle: saline 98 % of control | dose: 400.0 mg/kg/injection, schedule: Q04DX003 (ip), vehicle: saline 100 % of control

CCNC(=O)N=C1SCCS1
inactive: [11] 118 % of control | dose: 200.0 mg/kg/injection, schedule: Q04DX002 (ip), vehicle: saline 118 % of control | dose: 400.0 mg/kg/injection, schedule: Q04DX002 (ip), vehicle: saline 96 % of control

C[Si](C)(O)CCl
inactive: [10] 102 % of control

CN(CCCCC(=O)NC(CCC(=O)O)C(=O)O)Cc1cnc2nc(N)nc(N)c2n1 (stereo unspecified)
inactive: dose: 20.0 mg/kg/injection, schedule: Q01DX009 (ip), vehicle: saline 94 % of control | dose: 40.0 mg/kg/injection, schedule: Q01DX009 (ip), vehicle: saline 112 % of control | dose: 80.0 mg/kg/injection, schedule: Q01DX009 (ip), vehicle: saline 94 % of control

CC(C)(C)n1cc(C(=O)c2ccccc2)cc1-c1ccccc1
inactive: dose: 100.0 mg/kg/injection, schedule: Q01DX009 (ip), vehicle: saline with Tween-80 91 % of control | dose: 200.0 mg/kg/injection, schedule: Q01DX009 (ip), vehicle: saline with Tween-80 91 % of control | dose: 400.0 mg/kg/injection, schedule: Q01DX009 (ip), vehicle: saline with Tween-80 87 % of control
